Data as given in article PMC12884772, “Macrophagic Sclerostin Loop2‐ApoER2 Interaction Required by Sclerostin for Cardiovascular Protective Action” (Advanced Science, 2025).

Tests used:
[1] = system: human differentiated macrophages (THP‐1); test: LPS‐induced inflammatory responses in human differentiated macrophages (THP‐1), siNC or siLrp8; format: cell-based
Method: (§1) To determine whether the suppressive effects of sclerostin on inflammatory responses in macrophages were dependent on ApoER2 in vitro, PMA (100 ng/mL, 48 h)‐induced human differentiated macrophages (THP‐1 cells, Procell Life Science & Technology, CL‐0233) and mouse macrophages (RAW 264.7 cells, ATCC, TIB‐71) were utilized. Human differentiated macrophages or mouse macrophages were divided into 9 groups (n = 3 per group), respectively, including (1) siNC, (2) siNC + LPS, (3) siNC + LPS + SOST 500 nM or 250 nM, (4) siNC + LPS + SOST 1 µM or 500 nM, (5) siNC + LPS + SOST 2 µM or 1 µM, (6) siLrp8 + LPS + SOST 500 nM or 250 nM, (7) siLrp8 + LPS + SOST 1µM or 500 nM, (8) siLrp8 + LPS + SOST 2 µM or 1 µM, (9) siLrp8 + LPS. Cells in groups (6‐9) were transfected with siRNA targeting human/mouse Lrp8 (human siLrp8: Santa Cruz Biotechnology sc‐40097, mouse siLrp8: Santa Cruz Biotechnology sc‐40098), while cells in groups (1‐5) were transfected with empty vector as control (siNC). 24 h later, cells in group (3)/(6), (4)/(7), and (5)/(8) were treated with recombinant human or mouse sclerostin for 3 h at concentration of 500 nM or 250 nM, 1 µM or 500 nM, as well as 2 µM or 1 µM, respectively, while cells in groups (1), (2), and (9) were treated with vehicle. Then, cells in groups (2‐9) were treated with LPS (100 ng/mL or 1 µg/mL) for 18 h. All groups of cell lysates were collected for determining the mRNA expression levels of TNF‐α, MCP‐1, and IL‐10 (human or mouse, respectively) by RT‐PCR.^[ [34] ^] Cell mediums were collected for determining the protein expression/secretion levels of TNF‐α, MCP‐1, and IL‐10 (human or mouse, respectively) by ELISA.^[ [34] ^]
(§2) Total RNA was extracted from cells following the protocols of Trizol reagent (Invitrogen, 15 596 026). […] The relative gene expression levels were calculated using the 2^−ΔΔCt method with GAPDH as the reference gene.^[ [40] ^] […]

[2] = system: mouse macrophages (RAW 264.7); test: LPS‐induced inflammatory responses in mouse macrophages (RAW 264.7), siNC or siLrp8; format: cell-based
Method: as §1, §2

[3] = THP‐1, LPS 100 ng/mL 18 h, recombinant human sclerostin 500 nM-2 µM for 3 h, RT‐PCR and ELISA, n = 3
[4] = RAW 264.7, LPS 1 µg/mL 18 h, recombinant mouse sclerostin 250 nM-1 µM for 3 h, RT‐PCR and ELISA, n = 3

## sclerostin: recombinant human/mouse full‐length sclerostin protein
[1]; [3]
  mRNA expression and protein expression/secretion of IL‐10: promoted
  mRNA expression and protein expression/secretion of TNF‐α and MCP‐1: inhibited
[1]; THP‐1 with siLrp8, LPS 100 ng/mL 18 h
  Effects of sclerostin on cytokine/chemokine expression/secretion upon Lrp8 silencing: not detected
[2]; [4]
  mRNA expression and protein expression/secretion of IL‐10: promoted
  mRNA expression and protein expression/secretion of TNF‐α and MCP‐1: inhibited
[2]; RAW 264.7 with siLrp8, LPS 1 µg/mL 18 h
  Effects of sclerostin on cytokine/chemokine expression/secretion upon Lrp8 silencing: not detected
